These results are taken from patent US4851420A, “2,6-diamino-3-halobenzylpyridines and processes for their manufacture as well as their use in pharmaceuticals” (ASTA Pharma Aktiengesellschaft, priority 1986, dated 1989).

For orientation: ED50 means the dose that gives a 50% effect, or the effect in half of the subjects. What is called LD50 is the dose expected to kill half of the subjects tested. A lower LD50 goes with a more toxic substance.

Series [1] in a line: Randall-Selitto Test (analgesia), rat. The series is classed as in vivo. The conditions noted are these: for ED50: po. The text has this: Randall-Selitto Test G. Engelhardt, Arzneim. Forsch. 34, 992 et seq. (1984); Maruyama et al., Arzneim. Forsch. 28, 11 (1978).
The next series in a line: Toxicity, LD50 mouse. To be noted: in vivo, po. From the text:
(§1) Miller, Tainter, Proc. Soc. Exper. Biol. Med. 57, 261 (1944).

A short description of series [2]: acetic acid Writhing Test (analgesia), mouse. The series is classed as in vivo. The conditions noted are these: p.a. (so in the source). The text has this:
Acetic acid Writhing Test Koster et al., Fed. Proc., Volume 18, 412 (1959).

Series [3] in a line: general absence of side-effects (gastrointestinal disorders, gastric ulcers). To be noted: compared to known substances, e.g. non-steroidal anti-inflammatory agents with analgesic components. The series is classed as in vivo.
Another series in a line: Toxicity, LD50 rat. To be noted: in vivo, po.
From the text: as §1

Turning to `Nc1ccc(Cc2ccc(F)cc2)c(N)n1` [D 17033, 2,6-diamino-3-(4-fluoro)benzylpyridine], the figures for the median effective dose (ED50) in series [1] and in series [2] were 0.2 mg/kg and 1.4 mg/kg, respectively. In addition, the LD50 in “Toxicity, LD50 mouse” came out at 266 mg/kg; in “Toxicity, LD50 rat” it was 1100 mg/kg. Besides, the “side-effects such as gastrointestinal disorders and gastric ulcers” value in series [3] is on record as “general absence of side-effects”.

Turning to `Nc1ccc(Cc2ccccc2F)c(N)n1` [D 17746, 2,6-diamino-3-(2-fluoro)benzylpyridine], the LD50 in the series “Toxicity, LD50 mouse” stood at 276 mg/kg.

Turning to `Nc1ccc(Cc2c(F)cccc2Cl)c(N)n1` [D 17748, 2,6-diamino-3-(2-fluoro-6-chloro)benzylpyridine], in series [1] (p.o., at 0.5 mg/kg (printed 0.5/57%)), the “Randall-Selitto Test Rat, % effect at stated dose” value was found to be 57%. In the series “Toxicity, LD50 mouse”, the LD50 stood at 285 mg/kg. Also, in series [2] (at 0.5 mg/kg (printed 0.5/34%)), the “acetic acid Writhing Test Mouse, % effect at stated dose” value is 34%.

Turning to `CCOC(=O)Nc1ccc(NCc2ccc(F)cc2)nc1N` [Flupirtin, reference compound], the median effective dose (ED50) stood at 38.8 mg/kg in series [1] and 44.5 mg/kg in series [2]. For the same compound, the LD50 is 633 mg/kg in “Toxicity, LD50 mouse” and 1660 mg/kg in the series “Toxicity, LD50 rat”.
